As a reminder, the IC50 is the concentration that inhibits the measured activity by half. The term inhibition denotes the change of the read-out against control, counted positive when it falls. For orientation: half-life means the time in which the quantity being followed falls by half.

The source of these data is PMC8234231, “In Vitro Inhibition of Renal OCT2 and MATE1 Secretion by Antiemetic Drugs” (International Journal of Molecular Sciences, 2021).

Series [1] deals with T1, human OCT2 (Homo sapiens, UniProt O15244).
T1 construct: expressed in transfected cells; gift of Dr. Kathy Giacomini, UCSF
T1 sequence (O15244 1-555): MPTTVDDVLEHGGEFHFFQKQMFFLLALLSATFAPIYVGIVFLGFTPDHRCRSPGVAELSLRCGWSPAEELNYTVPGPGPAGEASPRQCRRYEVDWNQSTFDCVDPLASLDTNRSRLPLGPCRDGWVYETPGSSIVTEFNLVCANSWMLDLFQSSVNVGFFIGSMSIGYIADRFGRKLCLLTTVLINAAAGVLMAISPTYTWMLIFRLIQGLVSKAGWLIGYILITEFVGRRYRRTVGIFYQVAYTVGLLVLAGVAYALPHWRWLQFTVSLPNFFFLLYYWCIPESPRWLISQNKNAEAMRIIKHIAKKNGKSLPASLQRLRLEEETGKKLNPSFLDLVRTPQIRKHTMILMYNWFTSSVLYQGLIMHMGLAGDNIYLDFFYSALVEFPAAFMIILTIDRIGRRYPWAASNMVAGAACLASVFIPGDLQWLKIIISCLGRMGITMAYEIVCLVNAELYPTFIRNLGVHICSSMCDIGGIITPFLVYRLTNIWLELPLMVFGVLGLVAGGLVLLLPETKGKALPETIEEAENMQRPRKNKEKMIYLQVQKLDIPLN
In words: Inhibition of ASP+ uptake in HEK293 cells overexpressing OCT2. The following applies: for IC50: HEK293-OCT2, ASP+ 10 μM, 1 min, 37 °C, Avg ± SE (n = 3). Format: cell-based. As to the method:
(§1) After washing once with prewarmed Hank’s Buffered Saline Solution (HBSS), cells were preincubated for 30 min at 37 °C with various 5-HT3 antagonists for OCT2 cells or in a 30 mM NH4Cl solution in HBSS at pH 6.5 for MATE1 cells for intracellular acidification. Uptake into OCT2 cells was initiated through exposure to 10 μM of fluorescent substrate ASP^+ directly in the incubation media. Uptake into MATE1 cells was initiated by application of HBSS at pH 7.4 containing 5-HT3 antagonists and 10 μM of fluorescent substrate ASP^+. […] Media was removed and washed four times with ice-cold HBSS. Cells were lysed with 1% Triton X-100. […] Intracellular fluorescence was normalized to total protein concentration of cell lysates from each well using the bicinchoninic acid (BCA) assay (Pierce Biotechnology, Rockford, IL, USA). Experiments were repeated three separate times, with three to four replicates in each experiment.
(§2) GraphPad Prism v6 (GraphPad Software, La Jolla, CA, USA) was used for statistical analysis.

Series [2] deals with empty vector (EV) HEK293 cells. In words: ASP+ uptake in empty vector (EV) HEK293 cells in presence of inhibitors. Format: cell-based, human. The conditions noted are these: ASP+ 10 μM. The source says:
Media was removed and washed four times with ice-cold HBSS. Cells were lysed with 1% Triton X-100. […] Experiments were repeated three separate times, with three to four replicates in each experiment.

Series [3] concerns OCT2 and MATE1. The series can be described thus: Inhibition of basolateral-to-apical transcellular transport of ASP+ in OCT2/MATE1 double-transfected MDCK cells (Transwell). The conditions noted are these: human. As to the method: (§3) Control and OCT2/MATE1-expressing MDCK cells were evaluated for protein expression of OCT2 and MATE1 using SDS-PAGE and western blotting with specific primary antibodies (OCT2, sc292622 1:500 and MATE1, sc133390 1:250, Santa Cruz Biotechnology, Santa Cruz, CA, USA), followed by an antirabbit HRP-conjugated secondary antibody (1:1000, Sigma Aldrich, St. Louis, MO, USA) and Super Signal Western Dura Extended Duration Substrate (Pierce Biotechnology, Rockford, IL, USA). Detection was performed with a FluorChem imager (ProteinSimple, Santa Clara, CA, USA). Both MDCK cell lines were seeded on 0.4 μm transwell inserts (VWR, Radnor, PA, USA) at a density of 2 × 10^5 cells/cm^2. Transport experiments were performed 3 to 5 days after seeding. The integrity of MDCK monolayers was verified by measuring transepithelial electrical resistance (TEER) >150 Ω*cm^2 using an epithelial voltohmmeter, EVOM^2 (World Precision Instruments, Sarasota, FL). Proper formation of tight junctions was also verified by measurement of passive permeability of lucifer yellow in the basolateral-to-apical (B-to-A) direction. Lucifer yellow (20 μM) was applied to the basolateral chamber for 1 h, and media were collected from the apical chamber.
(§4) After washing the cells once with Hank’s Buffered Saline Solution (HBSS) pH 7.4, transport studies were initiated after aspirating the wash buffer from both the apical and basal chambers. […] Cells were lysed with 1% Triton X-100. […] Intracellular fluorescence was normalized to total protein concentration of cell lysates from each transwell using the BCA assay. Experiments were performed in three individual Transwell inserts.

Series [4] relates to human OCT2 and MATE1. The series can be described thus: Intracellular accumulation of ASP+ in OCT2/MATE1 double-transfected MDCK cells. Format: cell-based. The following applies: 120 min; for effect on intracellular ASP+ accumulation: inhibitor 0.5–20 μM, ASP+ 25 μM; for increase in intracellular ASP+ accumulation: inhibitor 20 μM (highest concentration). The method, then:
Cells were incubated with 5-HT3 antagonists in the apical chamber in HBSS pH 6.0 and 5-HT3 antagonists with ASP^+ (25 μM) in the basolateral chamber in HBSS pH 7.4 and incubated at 37 °C for 120 min. To measure time-dependent transcellular transport, an aliquot of the incubation medium (100 μL) from the apical chamber (receiving chamber) was collected at 40, 60, 90, and 120 min and replaced with an equal volume of fresh buffer containing 5-HT3 antagonist or the positive control chemical at the original concentration. […] Cells were lysed with 1% Triton X-100. […] Experiments were performed in three individual Transwell inserts.

Series [5] concerns the target T2, MATE1 (Homo sapiens, UniProt Q96FL8).
T2 construct: expressed in transfected cells; gift of Dr. Kathy Giacomini, UCSF
T2 sequence (Q96FL8 1-570): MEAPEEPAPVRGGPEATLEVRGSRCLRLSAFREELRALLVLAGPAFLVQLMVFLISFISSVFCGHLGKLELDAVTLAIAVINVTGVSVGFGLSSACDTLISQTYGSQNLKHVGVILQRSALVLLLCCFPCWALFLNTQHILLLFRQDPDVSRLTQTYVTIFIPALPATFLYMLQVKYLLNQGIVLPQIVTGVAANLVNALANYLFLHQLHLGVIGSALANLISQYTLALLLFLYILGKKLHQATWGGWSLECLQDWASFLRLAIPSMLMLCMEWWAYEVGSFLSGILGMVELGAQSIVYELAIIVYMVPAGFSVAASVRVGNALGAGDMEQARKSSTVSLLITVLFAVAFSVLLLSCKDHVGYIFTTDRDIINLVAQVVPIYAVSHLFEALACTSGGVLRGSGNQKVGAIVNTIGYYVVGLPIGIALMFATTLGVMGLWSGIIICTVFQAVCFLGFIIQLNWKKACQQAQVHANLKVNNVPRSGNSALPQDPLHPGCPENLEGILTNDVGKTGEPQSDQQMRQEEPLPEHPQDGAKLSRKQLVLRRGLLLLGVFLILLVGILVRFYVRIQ
The series can be described thus: Inhibition of ASP+ uptake in HEK293 cells overexpressing MATE1. Format: cell-based. The following applies: for IC50: HEK293-MATE1, ASP+ 10 μM, 1 min, 37 °C, Avg ± SE (n = 3). As to the method:
as §1, §2

Series [6] relates to human OCT2 and MATE1. In words: Inhibition of basolateral-to-apical transcellular transport of ASP+ in OCT2/MATE1 double-transfected MDCK cells (Transwell). The following applies: for effect on B-to-A transport of ASP+: inhibitor 0.5–20 μM, 40–120 min, ASP+ 25 μM; for effect on transcellular transport of ASP+: inhibitor 10 and 20 μM. As to the method:
as §3, §4

For series [7] the following is noted: no reference given, cited from earlier work; for metabolized by cytochrome P450 enzymes in the liver: range for the named drugs together.
Setting [8] is: probe ASP+ (25 μM, basolateral chamber).

“Also recorded” adds a separate entry of the source. Like-named read-outs stand apart in the source and are kept apart here.

As for `CN/C(=N/CCSCc1nc[nH]c1C)NC#N` [Cimetidine], inhibition in series [1] was half-maximal at 24.5 ± 4 µM (IC50). The “effect on ASP+ uptake in EV cells” value in series [2] is reported as “had no influence on ASP^+ uptake”. In series [3] (setting [8]), this compound displayed an inhibition at 120 min, 5 μM of 18% and an inhibition at 120 min, 50 μM of 40%. For the same compound, the “increase in intracellular accumulation of ASP+” value in series [4] (cimetidine concentration not stated in the sentence (5 and 50 μM tested)) is on record as 1.8 fold.

Turning to `O=C(O[C@@H]1C[C@@H]2C[C@H]3C[C@H](C1)N2CC3=O)c1c[nH]c2ccccc12` [Dolasetron], the IC50 amounted to 85.4 ± 3.4 µM in series [1] and 27.4 ± 2.8 µM in series [5]. The “effect on B-to-A transport of ASP+” value in series [6] is “at 10 and 20 μM inhibited ASP^+ transport at 120 min only”. In addition, the “effect on transcellular transport of ASP+” value in series [6] is “similarly reduced the transcellular transport of ASP^+”. Moreover, in series [4], the “effect on intracellular ASP+ accumulation” value is listed as “No significant changes in ASP^+ accumulation”. In series [7], the half-life was 8 to 9 h.

In series [1], `CN1C2CCCC1CC(NC(=O)c1nn(C)c3ccccc13)C2` (stereo not drawn) [Granisetron] showed an IC50 of 3.8 ± 1.6 µM. Also, the IC50 in series [5] came out at 5 ± 1.1 µM. Besides, in series [2], the “effect on ASP+ uptake in EV cells” value is “caused a small decrease in ASP^+ accumulation”. The “effect on B-to-A transport of ASP+” value in series [6] is “did not alter the B-to-A transport of ASP^+ at any concentration tested; also recorded: did not exhibit any significant inhibition”. The “increase in intracellular ASP+ accumulation” value in series [4] worked out at 1.3 fold. In series [7], the half-life was 8 to 9 h and the “metabolized by cytochrome P450 enzymes in the liver” value (shortened to “metabolized”) was 48–95%.

As to `O=C1c2cccc3c2[C@H](CCC3)CN1[C@@H]1CN2CCC1CC2` [Palonosetron], in series [1], the IC50 turned out to be 2.2 ± 0.3 µM. The same compound gave a concentration for half-maximal inhibition (IC50) in series [5] of 1.6 ± 0.6 µM. Also, the “effect on ASP+ uptake in EV cells” value in series [2] is on record as “stimulated additional ASP^+ uptake”. For the same compound, in series [6], the “effect on B-to-A transport of ASP+” value is “concentration-dependent inhibition of ASP^+ secretion, which was significant at 10 and 20 μM for all time-points”; the “effect on transcellular transport of ASP+” value is reported as “similarly reduced the transcellular transport of ASP^+”. In addition, the “effect on intracellular ASP+ accumulation” value in series [4] is recorded as “No significant changes in ASP^+ accumulation”. Further, in series [7], the half-life was 40 h and the “metabolized” value was 48–95%.

With `CN1[C@@H]2CC[C@H]1C[C@@H](OC(=O)c1c[nH]c3ccccc13)C2` [Tropisetron], in series [1], 31.3 ± 6.6 µM corresponded to half-maximal inhibition (IC50). The same compound yielded an IC50 in series [5] of 1.6 ± 0.9 µM. Besides, the “effect on ASP+ uptake in EV cells” value in series [2] is reported as “stimulated additional ASP^+ uptake”. In series [6], the “effect on B-to-A transport of ASP+” value was “concentration-dependent inhibition of ASP^+ secretion, which was significant at 10 and 20 μM for all time-points”; the “effect on transcellular transport of ASP+” value is recorded as “similarly reduced the transcellular transport of ASP^+”. For the same compound, the “increase in intracellular ASP+ accumulation” value in series [4] is reported as 1.5 fold. In series [7], the half-life was below 6 h and the “metabolized” value is reported as 48–95%.

As to `C[C@@H](O[C@H]1OCCN(Cc2n[nH]c(=O)[nH]2)[C@H]1c1ccc(F)cc1)c1cc(C(F)(F)F)cc(C(F)(F)F)c1` [aprepitant], the “effect on ASP+ uptake in OCT2-expressing HEK293 cells” value in series [1] (ASP+ 10 μM) is “had no impact on ASP^+ uptake”. Also, in series [5] (ASP+ 10 μM), the “effect on ASP+ uptake in MATE1-expressing HEK293 cells” value is recorded as “had no impact on ASP^+ uptake”.

For the compound `CCN(CC)CCNC(=O)c1cc(Cl)c(N)cc1OC` [metoclopramide], in series [1], the “effect on ASP+ uptake in OCT2-expressing HEK293 cells” value is “inhibited OCT2 activity across a range of concentrations”. In addition, in series [5], the “inhibition of MATE1 activity” value was “None of these drugs inhibited MATE1 activity”.

Regarding `CN1CCN(CCCN2c3ccccc3Sc3ccc(Cl)cc32)CC1` [prochlorperazine], the “effect on ASP+ uptake in OCT2-expressing HEK293 cells” value in series [1] (ASP+ 10 μM) is on record as “inhibited OCT2 activity across a range of concentrations”. In addition, the “inhibition of MATE1 activity” value in series [5] (inhibitor 10 μM, HEK293-MATE1 (data not shown)) is given as “None of these drugs inhibited MATE1 activity”.

Consider `CCc1nc(N)nc(N)c1-c1ccc(Cl)cc1` [pyrimethamine], for which, in series [3], the inhibition at 120 min, 1 μM amounted to 36%. Besides, the “increase in intracellular accumulation of ASP+” value in series [4] (inhibitor 1 μM) amounted to 1.3 fold.
